# In patent US20120122840A1, “COMPOUNDS AND THERAPEUTIC USES THEREOF” (Myrexis, Inc., priority 2009, published 2012):
# Assays:
# Test in all cases: Direct target affinity purification (DTAP) from cell lysates
# Format in all cases: binding
# Conditions in all cases: compound coupled to Sepharose beads
# [1] = target: T1, Aurora A (Homo sapiens, UniProt O14965)
# T1 sequence (O14965 1-403): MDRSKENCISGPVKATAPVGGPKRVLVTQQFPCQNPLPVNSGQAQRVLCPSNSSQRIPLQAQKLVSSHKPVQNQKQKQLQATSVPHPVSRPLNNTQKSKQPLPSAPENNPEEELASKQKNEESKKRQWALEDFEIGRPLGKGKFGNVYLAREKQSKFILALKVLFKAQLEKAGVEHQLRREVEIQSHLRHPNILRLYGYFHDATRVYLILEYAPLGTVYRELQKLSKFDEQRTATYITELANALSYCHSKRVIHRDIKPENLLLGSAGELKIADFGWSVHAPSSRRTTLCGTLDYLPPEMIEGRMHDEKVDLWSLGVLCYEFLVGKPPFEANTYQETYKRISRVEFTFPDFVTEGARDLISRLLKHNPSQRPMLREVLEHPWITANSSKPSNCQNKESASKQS
# Excerpt: (§1) Direct target affinity purification (DTAP) was used to investigate (1) the selectivity of compounds of the invention for TTK, relative to other kinases, and (2) the importance of a specific methyl substituent in providing that selectivity.
# (§2) In preparation for DTAP studies, the two compounds depicted above were synthesized with an alkyl-amine linker to allow covalent coupling to epoxy-activated Sepharose 6B beads (GE Healthcare, Piscataway, N.J.). Sepharose beads were swollen and washed with water for 30 min followed by equilibration in coupling buffer (50% dimethylformamide, 50 mM Na2CO3). Beads were pelleted by centrifugation (15 sec at 2000×g) and the supernatant removed by aspiration. An equal volume of coupling buffer containing the linkered test compound was used to resuspend the beads. Compound concentrations in the coupling reaction ranged from 0.1 mM to 12.5 mM. The coupling reactions were incubated at 34° C. for 18 hrs on a rotator mixer. Ethanolamine was added to 1 M for the final 1 hr to quench the coupling reaction. Beads were washed extensively with binding buffer (1 M NaCl, 50 mM Hepes [pH 7.4], 1% Triton X-100, 1 mM EDTA and 1 mM dithiothreitol) to remove residual coupling reagents, and were then stored at 4° C.
# (§3) Cellular proteins were prepared by mild sonication in lysis buffer (150 mM NaCl, 50 mM Hepes [pH 7.4], 1% Triton X-100, 1 mM EDTA and 2 mM dithiothrietol containing 1× Halt™ protease and phosphatase inhibitor cocktail [Thermo Fisher Scientific, Rockford, Ill.]). Lysates were centrifuged (20,000×g for 20 min) to remove debris, diluted to a protein concentration of ˜5 mg/ml, divided into aliquots, and stored at −80° C.
# (§4) For DTAP reactions, cell lysates (˜0.5 ml per binding reaction) were thawed and the NaCl concentration adjusted to 1 M. Competitor compounds dissolved in DMSO (or a DMSO control) were then added to the lysate and incubated on ice for 5 min. The lysates were centrifuged at 20,000×g for 10 min and the cleared supernatant was transferred to a tube containing 50 μl of coupled beads. The binding reactions were incubated on a rotator mixer at 4° C. for 2 hrs, after which the beads were pelleted by centrifugation and the supernatant removed by aspiration. The beads were washed three times with 20 volumes of binding buffer, 2× with 20 volumes wash buffer (150 mM NaCl, 50 mM Hepes [pH 7.4], 1% Tween 20, 1 mM EDTA, 2 mM dithiothrietol) and finally twice with 10 volumes of 150 mM NaCl, 50 mM Hepes [pH 7.4].
# (§5) During the final wash, an aliquot containing 10 μl of beads was transferred to a separate tube and resuspended with 15 μl of 2× SDS/PAGE loading buffer (Invitrogen Corporation, Carlsbad, Calif.) for 5 min at 90° C. The eluted proteins were resolved by electrophoresis on a NuPage 4-12% Bis-Tris Gel (Invitrogen Corporation, Carlsbad, Calif.) and visualized by staining with Ruby Red (Invitrogen Corporation, Carlsbad, Calif.). The remaining beads (40 μl) were processed for analysis by mass spectrometry.
# [2] = target: FER (Homo sapiens, UniProt P16591)
# Excerpt: as §1, §2, §3, §4, §5
# [3] = target: T2, JAK1 (Homo sapiens, UniProt P23458)
# T2 construct: Cellular proteins were prepared by mild sonication in lysis buffer; endogenous in cells
# Excerpt: as §1, §2, §3, §4, §5
# [4] = target: JNK (Homo sapiens, UniProt P45983)
# Excerpt: as §1, §2, §3, §4, §5
# [5] = target: T3, TTK (Homo sapiens, UniProt P33981)
# T3 sequence (P33981 1-857): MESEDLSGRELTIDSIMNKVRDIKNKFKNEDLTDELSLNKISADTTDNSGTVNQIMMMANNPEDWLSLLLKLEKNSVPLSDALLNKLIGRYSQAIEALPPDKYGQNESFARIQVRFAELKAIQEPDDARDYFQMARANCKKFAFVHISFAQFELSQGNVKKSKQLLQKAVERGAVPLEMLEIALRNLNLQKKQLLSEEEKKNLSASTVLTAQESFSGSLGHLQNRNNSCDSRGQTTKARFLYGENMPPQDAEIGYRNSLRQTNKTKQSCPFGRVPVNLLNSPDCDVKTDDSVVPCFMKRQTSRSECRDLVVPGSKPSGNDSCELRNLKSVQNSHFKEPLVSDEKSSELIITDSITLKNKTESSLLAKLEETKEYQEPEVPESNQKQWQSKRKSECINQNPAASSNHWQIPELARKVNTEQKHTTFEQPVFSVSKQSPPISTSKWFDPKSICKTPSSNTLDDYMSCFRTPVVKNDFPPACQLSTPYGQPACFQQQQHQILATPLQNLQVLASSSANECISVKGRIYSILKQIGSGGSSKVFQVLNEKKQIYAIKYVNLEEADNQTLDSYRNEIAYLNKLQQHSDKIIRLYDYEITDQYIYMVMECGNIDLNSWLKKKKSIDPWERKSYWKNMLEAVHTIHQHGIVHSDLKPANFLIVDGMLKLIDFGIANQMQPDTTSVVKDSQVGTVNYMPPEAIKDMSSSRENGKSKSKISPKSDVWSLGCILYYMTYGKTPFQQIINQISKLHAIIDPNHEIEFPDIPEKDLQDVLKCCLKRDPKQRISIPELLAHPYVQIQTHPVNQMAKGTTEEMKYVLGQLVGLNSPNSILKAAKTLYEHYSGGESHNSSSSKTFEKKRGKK
# Excerpt: as §1, §2, §3, §4, §5
# T2 sequence (P23458 whole entry, species assumed): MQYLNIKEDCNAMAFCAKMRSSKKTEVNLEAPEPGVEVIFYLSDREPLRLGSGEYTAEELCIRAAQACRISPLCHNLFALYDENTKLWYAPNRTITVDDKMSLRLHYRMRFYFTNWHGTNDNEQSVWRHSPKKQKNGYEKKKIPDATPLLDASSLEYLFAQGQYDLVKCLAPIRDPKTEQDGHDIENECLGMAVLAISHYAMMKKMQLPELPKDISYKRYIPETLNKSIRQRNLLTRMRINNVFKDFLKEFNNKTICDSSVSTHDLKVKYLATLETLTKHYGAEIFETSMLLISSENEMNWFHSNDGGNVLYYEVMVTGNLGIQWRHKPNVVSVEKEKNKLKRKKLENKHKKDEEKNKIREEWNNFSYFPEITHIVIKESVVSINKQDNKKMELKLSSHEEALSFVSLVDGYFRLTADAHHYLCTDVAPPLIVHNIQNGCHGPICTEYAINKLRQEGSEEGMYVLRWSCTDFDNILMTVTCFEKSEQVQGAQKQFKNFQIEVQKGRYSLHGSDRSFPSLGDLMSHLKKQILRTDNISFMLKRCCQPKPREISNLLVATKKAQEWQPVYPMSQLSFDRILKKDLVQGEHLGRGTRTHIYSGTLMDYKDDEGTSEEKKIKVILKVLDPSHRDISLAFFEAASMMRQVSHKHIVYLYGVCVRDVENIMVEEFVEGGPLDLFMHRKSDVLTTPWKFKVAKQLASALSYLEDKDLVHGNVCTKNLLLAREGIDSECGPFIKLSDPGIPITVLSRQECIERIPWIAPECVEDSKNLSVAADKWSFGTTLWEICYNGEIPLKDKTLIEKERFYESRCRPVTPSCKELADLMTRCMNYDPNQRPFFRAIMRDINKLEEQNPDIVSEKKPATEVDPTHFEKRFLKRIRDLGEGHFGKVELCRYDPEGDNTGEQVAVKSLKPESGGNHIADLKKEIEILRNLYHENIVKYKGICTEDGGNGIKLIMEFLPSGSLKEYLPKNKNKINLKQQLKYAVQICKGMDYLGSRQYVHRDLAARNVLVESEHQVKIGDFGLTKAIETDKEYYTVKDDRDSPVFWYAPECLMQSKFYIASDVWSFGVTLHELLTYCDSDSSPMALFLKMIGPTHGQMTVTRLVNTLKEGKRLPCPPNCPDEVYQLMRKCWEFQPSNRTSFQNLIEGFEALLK
# Sequence of JNK (P45983 whole entry): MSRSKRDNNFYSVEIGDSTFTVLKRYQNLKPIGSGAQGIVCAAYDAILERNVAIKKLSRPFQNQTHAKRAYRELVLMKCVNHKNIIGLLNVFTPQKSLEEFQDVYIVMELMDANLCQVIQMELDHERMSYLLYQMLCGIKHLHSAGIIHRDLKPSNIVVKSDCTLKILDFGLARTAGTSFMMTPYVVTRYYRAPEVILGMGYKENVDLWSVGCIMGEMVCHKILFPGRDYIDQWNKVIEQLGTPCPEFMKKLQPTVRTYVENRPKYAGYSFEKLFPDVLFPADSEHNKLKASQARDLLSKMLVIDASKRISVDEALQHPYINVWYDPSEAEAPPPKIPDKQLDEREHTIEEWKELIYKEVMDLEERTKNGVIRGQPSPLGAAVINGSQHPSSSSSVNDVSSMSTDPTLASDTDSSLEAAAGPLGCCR
# Sequence of FER (P16591 whole entry, species assumed): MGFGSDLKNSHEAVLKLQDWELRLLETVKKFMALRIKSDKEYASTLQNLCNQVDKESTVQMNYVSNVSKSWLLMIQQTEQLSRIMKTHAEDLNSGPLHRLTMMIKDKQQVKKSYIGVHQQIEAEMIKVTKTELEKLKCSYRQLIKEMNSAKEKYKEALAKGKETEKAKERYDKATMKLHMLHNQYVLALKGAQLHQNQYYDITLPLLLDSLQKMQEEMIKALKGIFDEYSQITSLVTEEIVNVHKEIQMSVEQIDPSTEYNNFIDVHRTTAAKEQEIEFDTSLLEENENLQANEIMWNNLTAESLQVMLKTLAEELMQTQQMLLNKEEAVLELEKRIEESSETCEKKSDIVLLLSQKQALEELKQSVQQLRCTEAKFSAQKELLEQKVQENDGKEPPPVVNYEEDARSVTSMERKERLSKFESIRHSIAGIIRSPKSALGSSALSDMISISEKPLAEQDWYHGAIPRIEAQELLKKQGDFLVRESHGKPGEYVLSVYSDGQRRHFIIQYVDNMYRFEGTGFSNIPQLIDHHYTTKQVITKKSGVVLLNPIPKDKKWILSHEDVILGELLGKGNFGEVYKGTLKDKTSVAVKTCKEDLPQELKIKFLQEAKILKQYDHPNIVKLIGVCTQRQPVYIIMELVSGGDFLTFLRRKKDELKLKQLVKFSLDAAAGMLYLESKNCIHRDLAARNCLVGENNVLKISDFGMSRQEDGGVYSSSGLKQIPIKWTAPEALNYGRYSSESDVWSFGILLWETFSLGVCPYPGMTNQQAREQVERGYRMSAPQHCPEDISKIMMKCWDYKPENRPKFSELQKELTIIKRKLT
compound,measurement,setting,value
"NCCCOc1ccc(Nc2nc(NC3CCCCC3)c3nc[nH]c3n2)cc1 [N2-[4-(3-aminopropoxy)phenyl]-N-6-cyclohexyl-9H-purine-2,6-diamine]",binding of Aurora A from cell lysates to bead-coupled compound,[1],found to bind
same,binding of FER from cell lysates to bead-coupled compound,[2],found to bind
same,binding of JAK1 from cell lysates to bead-coupled compound,[3],found to bind
same,binding of JNK from cell lysates to bead-coupled compound,[4],found to bind
same,binding of TTK from cellular lysates to bead-coupled compound,[5],high affinity
